Experimental data taken from ChEMBL document CHEMBL1142932 (Bioorg Med Chem, 2007).

Tests used:
[1] = biological target: T1, Adenosine receptor A2a (Homo sapiens, UniProt P29274); assay: Displacement of [3H]CGS21680 from human recombinant adenosine A2A receptor expressed in HEK293T cells at 100 uM; type: cell-based; settings: HEK-293T
[2] = biological target: T2, Adenosine receptor A1 (Homo sapiens) (UniProt P30542); assay: Displacement of [3H]DPCPX from human recombinant adenosine A1 receptor expressed in HEK293T cells at 100 uM; type: cell-based; settings: HEK-293T
T2 sequence (whole entry): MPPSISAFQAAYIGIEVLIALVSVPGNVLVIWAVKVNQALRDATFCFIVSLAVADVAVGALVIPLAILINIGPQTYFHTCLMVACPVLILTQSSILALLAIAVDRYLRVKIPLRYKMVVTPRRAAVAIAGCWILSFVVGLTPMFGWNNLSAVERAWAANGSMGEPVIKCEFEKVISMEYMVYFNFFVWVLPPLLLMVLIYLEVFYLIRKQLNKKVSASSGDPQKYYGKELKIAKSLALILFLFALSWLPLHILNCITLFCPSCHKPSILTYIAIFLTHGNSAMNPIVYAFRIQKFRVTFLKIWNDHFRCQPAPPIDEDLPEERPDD

[3] = biological target: T3, Adenosine receptor A3 (Homo sapiens) (UniProt P0DMS8); assay: Displacement of [3H]NECA from human recombinant adenosine A3 receptor expressed in HEK293T cells at 100 uM; type: cell-based; settings: HEK-293T
T3 sequence (whole entry): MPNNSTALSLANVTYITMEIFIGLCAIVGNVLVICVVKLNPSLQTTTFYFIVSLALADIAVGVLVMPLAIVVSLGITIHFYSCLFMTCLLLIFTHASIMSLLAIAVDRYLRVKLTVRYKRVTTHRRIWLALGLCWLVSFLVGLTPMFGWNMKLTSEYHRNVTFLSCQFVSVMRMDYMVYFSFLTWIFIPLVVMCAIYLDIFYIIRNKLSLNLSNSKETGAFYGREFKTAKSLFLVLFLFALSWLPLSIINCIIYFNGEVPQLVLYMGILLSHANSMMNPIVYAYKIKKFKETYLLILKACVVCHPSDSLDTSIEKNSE

[4] = biological target: T4, Adenosine receptor A1 (Homo sapiens, UniProt P30542); assay: Displacement of [3H]DPCPX from human recombinant adenosine A1 receptor expressed in HEK293T cells; type: cell-based, HEK-293T
T4 sequence (P30542 whole entry): T2 sequence (whole entry)

[5] = biological target: T5, Adenosine receptor A3 (Homo sapiens, UniProt P0DMS8); assay: Displacement of [3H]NECA from human recombinant adenosine A3 receptor expressed in HEK293T cells; type: cell-based, HEK-293T
T5 sequence (P0DMS8 whole entry): T3 sequence (whole entry)

[6] = biological target: T1, Adenosine receptor A2a; assay: biochemical

T1 sequence (P29274 whole entry): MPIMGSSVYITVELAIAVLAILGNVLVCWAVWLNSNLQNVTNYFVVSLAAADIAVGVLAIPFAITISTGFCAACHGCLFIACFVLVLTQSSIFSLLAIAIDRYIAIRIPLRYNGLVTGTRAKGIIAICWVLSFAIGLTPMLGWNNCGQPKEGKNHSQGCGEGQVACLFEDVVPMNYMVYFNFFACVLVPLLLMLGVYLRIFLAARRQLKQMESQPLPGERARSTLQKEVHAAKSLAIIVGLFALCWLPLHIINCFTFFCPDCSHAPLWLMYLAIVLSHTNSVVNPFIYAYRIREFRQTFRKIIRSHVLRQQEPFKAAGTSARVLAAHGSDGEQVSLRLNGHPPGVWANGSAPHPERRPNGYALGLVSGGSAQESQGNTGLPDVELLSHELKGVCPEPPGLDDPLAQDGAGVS

Activity [1] [%] | Activity [2] [%] | Activity [3] [%] | Ki [4] [µM] | Ki [5] [µM] | Structure (SMILES) | Ki [6] [µM]
38 | 22 | 25 | – | – | CN1CC(Nc2cccnc2)C(=O)N(C)C1=O (stereo unspecified) | –
– | – | – | 0.379 | 0.0139 | Cn1c(=O)c2[nH]c3cccnc3c2n(C)c1=O | –
15 | 8 | 3 | – | – | CN1C(=O)C(N)C(c2ccncc2Cl)N(C)C1=O (stereo unspecified) | –
– | – | – | 11.7 | 0.526 | Cn1c(=O)c2[nH]c3cnccc3c2n(C)c1=O | –
– | – | – | 13.5 | 0.332 | Cn1c(=O)c2c(c3ncccc3n2C)n(C)c1=O | –
– | – | 9 | – | – | Cn1c(=O)c2c(ncn2C)n(C)c1=O | –
– | – | – | – | 3.19 | Cn1c(=O)c2c(c3ccncc3n2C)n(C)c1=O | 4.19
29 | 9 | 0.2 | – | – | CN1CC(N(C)c2cccnc2)C(=O)N(C)C1=O (stereo unspecified) | –

Structure (SMILES) | Activity [1] [%] | Activity [2] [%] | Activity [3] [%] | Ki [4] [µM] | Ki [5] [µM] | Ki [6] [µM]
Oc1c(Br)cc2[nH]c3cnccc3c2c1Br | – | – | – | 7.37 | 2.05 | 4.92
